Assay results published in patent US8598157B2, “5-alkynyl-pyridines” (Boehringer Ingelheim International GmbH, priority 2011, dated 2013).

Experiments:
PI3Kalpha = PI3Kalpha (Homo sapiens (Human), UniProt P42336); experiment: Inhibition of PI3Kalpha-induced PIP-2 phosphorylation (filter-binding assay); type: biochemical; settings: 33P-ATP, p85alpha/His-p110alpha, read-out: IC50 PI3Kα
Text: Inhibition of PI3Kalpha-Induced PIP-2 Phosphorylation
This PI3Kalpha assay provides an IC50 value indicative of the activity of the compounds to inhibit PI3 kinase alpha activity. Inhibition of PI3 kinase would be expected to be indicative of activity in treating conditions of excessive or anomalous cell proliferation, such as cancers. See also J. A. Engelman, Nature Reviews Cancer, 2009, 9, 550-562; A. Carnero, Expert Opin. Investig. Drugs, 2009, 18, 1265-1277 and P. Liu et al., Nature Reviews Drug Discovery, 2009, 8, 627-64.
Method Type: Filter-Binding-Assay
Aliquoted in desired amounts and stored at −80° C. Final assay concentration 25 ng/well • Phosphotyrosin PDGFRbeta-peptide H-CGG-pY-[…]-pY-VPMLDM-NH2 was synthesized by Jerini Peptide Technologies (JPT) and used in a final conc. of 1.7 μM (stock 100 μM prepared in Assay buffer with DTT, aliquoted in desired amounts and stored at −80° C.) • Cold ATP (from Sigma; A-7699), 100 μM stock solution in H2O, use 1 μM final concentration in assay • [33P]-ATP, 370 MBq/ml from Amersham (#AH9968), use 0.5 μCi/well (10 mCi/ml) • Clear 96-well plates from Greiner (#655 162) • Filter plates: Perkin Elmer UniFilter GF/B #6005177 • Microscint 0 (from Perkin Elmer, #6013611) 2. Assay Procedure
The substrate-containing lipid vesicles are dissolved to a concentration of 0.637 mg lipid blend/ml assay buffer (with BSA, freshly added) in 50 ml Falcon->keep on ice, followed by ultrasonication (pulse of 15 sec followed by a pause of 10 sec, 4×). Compounds are serially diluted in assay buffer+6% DMSO and […] of each dilution is added per well of a 96-well plate (compounds are tested in duplicates) and mixed with 30 μl of the lipid vesicles containing PDGFR-Peptide ([…]) and PI3K alpha (25 ng/well final). The mixture is then incubated for 20 minutes at room temperature. Subsequently, 20 μl of assay buffer containing […] cold ATP and 0.5 μCi/20 μl 33P-ATP are added. The plates are then incubated at room temperature for 120 minutes (shaking with 300 rpm).
The reaction mix is transferred onto filter plates using “filtermate harvester” from Packard: filter plates are rinsed with PBS, then the reaction mix is filtered onto the filter plate, washed 5 times with PBS and are allowed to dry for 30-60 minutes at 50° C.
The plate bottom is sealed with Perkin Elmer white adhesive foil and 25 μl/well Microscint( ) are added, the top is covered with transparent adhesive foil and the plate is measured with Wallac Trilux 1450 Microbeta Counter.
As positive control serve wells containing vehicle controls (1% DMSO in assay buffer), showing non-inhibited kinase activity (high values). Wells containing assay buffer instead of enzyme can serve as control for background activity (low values).
Calculate IC50 values using the Smiley program (based on GrapPad Prism)

H460 cells = experiment: alamarBlue H460 cell assay (antiproliferative/cytotoxicity); type: cell-based; settings: NCI-H460; H460 human lung carcinoma cells
Text: (§1) The H460, MB453, U87, MCF7 and BT474 alamarBlue cell assays provide EC50 values indicative of the antiproliferative or cytotoxic effects of the compounds to respectively the H460 (human non small cell line cancer), MB-453 (breast cancer cell line), U87 (glioblastoma cell line), MCF7 (breast cancer cell line) and BT474 (breast cancer cell line). As known in the field, antiproliferative or cytotoxic effect against this cell lines would be expected to be indicative of activity in treating lung, breast and brain cancers. See R. Marone R et al. Biochim. Biophys. Acta. 2008 January; 1784(1):159-85. S. Yaguchi et al., J. Natl. Cancer Inst. 2006 Apr. 19; 98(8):545-56.
(§2) Method Type: Antiproliferative/Cytotoxicity
(§3) alamarBlue® is designed to provide a rapid and sensitive measure of cell proliferation and cytotoxicity in various human and animal cell lines. The assay is based on the reduction of alamarBlue in the reducing environment of living (metabolically active) cells. In the presence of added cytotoxic or antiproliferative compounds, the innate metabolic activity ceases.
(§4) AlamarBlue is soluble and stable in culture medium. Measurements are made fluorometrically by exciting at 530-560 nm and measuring emission at 590 nm. In reporting percent alamarBlue reduction by monitoring fluorescence, data are expressed as fluorescence emission intensity units as a function of time of incubation.
(§5) 3. Equipment • 96-well plates, flat bottom (Falcon, Cat. No.: 353072) • 96-well plates, U-shaped (Costar, Cat. No.: 3799) • CO2-Incubator • Microplate Reader, Spectramax Plus, Molecular Devices 4. Typical Procedure • Day 0: Seed 3000 BT-474 cells (IMDM/5% FCS, 1% NEAA, 1% Sodiumpyruvat) in 150 μl medium into a 96-well plate, flat bottom (include mediumblank). Incubate plates at 37° C. in a CO2 incubator overnight. • Day 1: Dilute compounds to a concentration 40 μM->1:3 in medium, 10 dilution steps, in 96-well plates. • Add 50 μl per well of each dilution (total volume per well 200 μl; final conc. of cpds: 10 μM->1:3). If required, test further dilutions. • All concentrations are tested in duplicates. • Controls: Cells w/o cpd. (+50 μl medium/DMSO). • Cells are incubated with compounds for 5-6 days. • Day 6 or 7: Add 25 μl of alamarBlue solution to each well and incubate for 8 hours at 37° C. Measure fluorescence by exciting at 530-560 nm and measuring emission at 590 nm. 5. Evaluation • Subtract average value for medium blank from sample readings • Calculate EC50 using GraphPad Prism (Fifty)

MB453 cells = experiment: alamarBlue MB453 cell assay (antiproliferative/cytotoxicity); type: cell-based; settings: Homo sapiens; MDA MB 453 breast cancer cell line
Text: as §1, §2, §3, §4, §5

U87 cells = experiment: U87 cell assay (antiproliferative/cytotoxicity); type: cell-based; settings: U-87MG human glioblastoma cells
Text: as §1, §2, §3, §4, §5

MCF7 cells = experiment: alamarBlue MCF7 cell assay (antiproliferative/cytotoxicity); type: cell-based; settings: MCF7 human breast cancer cell line
Text: as §1, §2, §3, §4, §5

BT474 cells = experiment: alamarBlue BT474 cell assay (antiproliferative/cytotoxicity); type: cell-based; settings: BT-474 human breast cancer cell line
Text: as §1, §2, §3, §4, §5

Chain of PI3Kalpha (P42336 whole entry): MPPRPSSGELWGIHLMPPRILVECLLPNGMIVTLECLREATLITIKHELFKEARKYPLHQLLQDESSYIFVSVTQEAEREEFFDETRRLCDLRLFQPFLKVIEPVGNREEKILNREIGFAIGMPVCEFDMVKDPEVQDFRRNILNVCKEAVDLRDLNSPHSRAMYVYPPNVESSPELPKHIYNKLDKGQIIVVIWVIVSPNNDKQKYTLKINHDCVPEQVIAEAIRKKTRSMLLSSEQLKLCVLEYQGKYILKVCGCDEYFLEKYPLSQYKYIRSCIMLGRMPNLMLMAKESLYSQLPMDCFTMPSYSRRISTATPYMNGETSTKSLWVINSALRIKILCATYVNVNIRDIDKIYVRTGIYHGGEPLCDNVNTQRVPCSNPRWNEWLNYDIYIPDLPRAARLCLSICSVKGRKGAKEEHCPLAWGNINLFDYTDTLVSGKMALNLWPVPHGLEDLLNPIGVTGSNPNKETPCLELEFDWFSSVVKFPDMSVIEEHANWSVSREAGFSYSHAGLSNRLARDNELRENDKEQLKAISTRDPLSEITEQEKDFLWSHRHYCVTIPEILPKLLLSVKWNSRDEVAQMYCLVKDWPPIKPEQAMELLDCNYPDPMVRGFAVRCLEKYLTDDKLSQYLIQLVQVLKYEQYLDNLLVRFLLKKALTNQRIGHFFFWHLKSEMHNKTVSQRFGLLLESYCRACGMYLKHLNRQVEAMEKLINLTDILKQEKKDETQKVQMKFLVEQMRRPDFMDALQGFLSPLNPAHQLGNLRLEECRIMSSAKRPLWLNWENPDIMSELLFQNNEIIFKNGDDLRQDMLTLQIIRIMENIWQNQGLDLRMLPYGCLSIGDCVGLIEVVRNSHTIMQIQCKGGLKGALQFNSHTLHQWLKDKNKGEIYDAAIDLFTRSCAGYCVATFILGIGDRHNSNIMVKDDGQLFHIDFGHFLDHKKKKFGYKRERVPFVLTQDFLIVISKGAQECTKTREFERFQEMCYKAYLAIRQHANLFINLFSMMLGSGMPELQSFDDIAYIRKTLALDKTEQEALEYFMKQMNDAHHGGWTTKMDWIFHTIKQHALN

| IC50 (PI3Kalpha) | Compound | EC50 (H460 cells) | EC50 (MB453 cells) | EC50 (U87 cells) | EC50 (MCF7 cells) | EC50 (BT474 cells) |
| --- | --- | --- | --- | --- | --- | --- |
| 2 nM | Cc1ncc(C#Cc2c(C)ncnc2N2CCN(C)C(=O)C2)cc1NS(=O)(=O)c1ccccc1 [Example I-60, N-{2-Methyl-5-[4-methyl-6-(4-methyl-3-oxo-piperazin-1-yl)-pyrimidin-5-ylethynyl]-pyridin-3-yl}-benzenesulfonamide] | 1250 nM | 618 nM | 945 nM | 103 nM | 1540 nM |
| 1 nM | Cc1ncc(C#Cc2c(C)ncnc2N2CCOCC2)cc1NS(=O)(=O)c1ccoc1 [Example I-50, Furan-3-sulfonic acid [2-methyl-5-(4-methyl-6-morpholin-4-yl-pyrimidin-5-ylethynyl)-pyridin-3-yl]-amide] | 128 nM | 239 nM | 289 nM | 16 nM | 330 nM |
| 2 nM | CC(=O)N1CCN(c2ncnc(C)c2C#Cc2cnc(C)c(NS(=O)(=O)c3ccccc3)c2)CC1 [Example I-61, N-{5-[4-(4-Acetyl-piperazin-1-yl)-6-methyl-pyrimidin-5-ylethynyl]-2-methyl-pyridin-3-yl}-benzenesulfonamide] | 791 nM | 262 nM | 631 nM | 39 nM | 1120 nM |
| 0.44 nM | Cc1ncc(C#Cc2c(C)ncnc2N2CCOCC2)cc1NS(=O)(=O)c1ccnn1C [Example I-56, 2-Methyl-2H-pyrazole-3-sulfonic acid [2-methyl-5-(4-methyl-6-morpholin-4-yl-pyrimidin-5-ylethynyl)-pyridin-3-yl]-amide] | 756 nM | 239 nM | 779 nM | 125 nM | 487 nM |
| 0.55 nM | Cc1cc(S(=O)(=O)Nc2cc(C#Cc3c(C)ncnc3N3CCOCC3)cnc2C)c(C)s1 [Example I-48, 2,5-Dimethyl-thiophene-3-sulfonic acid [2-methyl-5-(4-methyl-6-morpholin-4-yl-pyrimidin-5-ylethynyl)-pyridin-3-yl]-amide] | 100 nM | 533 nM | 341 nM | 14 nM | 754 nM |
| 3 nM | CC(=O)N1CCCN(c2ncnc(C)c2C#Cc2cnc(C)c(NS(=O)(=O)c3ccccc3)c2)CC1 [Example I-62, N-{5-[4-(4-Acetyl-[1,4]diazepan-1-yl)-6-methyl-pyrimidin-5-ylethynyl]-2-methyl-pyridin-3-yl}-benzenesulfonamide] | 1740 nM | 969 nM | 1290 nM | 709 nM | 4050 nM |

The remaining lines, values behind:

| Compound | IC50 (PI3Kalpha) | EC50 (H460 cells) | EC50 (MB453 cells) | EC50 (U87 cells) | EC50 (MCF7 cells) | EC50 (BT474 cells) |
| --- | --- | --- | --- | --- | --- | --- |
| Cc1ncc(C#Cc2c(C)ncnc2N2CCOCC2)cc1NS(=O)(=O)c1ccccc1Cl [Example I-5, 2-Chloro-N-[2-methyl-5-(4-methyl-6-morpholin-4-yl-pyrimidin-5-ylethynyl)-pyridin-3-yl]-benzenesulfonamide] | 1 nM | 64 nM | 202 nM | 271 nM | 61 nM | 152 nM |
| CCc1ncnc(N2CCN(C3CC3)CC2)c1C#Cc1cnc(C)c(NS(=O)(=O)c2ccc(F)cc2)c1 [Example I-28, N-{5-[4-(4-Cyclopropyl-piperazin-1-yl)-6-ethyl-pyrimidin-5-ylethynyl]-2-methyl-pyridin-3-yl}-4-fluoro-benzenesulfonamide] | 5 nM | 756 nM | 1850 nM | 14400 nM | 10000 nM | 10000 nM |
| Cc1ncc(C#Cc2c(C)ncnc2N2CCOCC2)cc1NS(=O)(=O)c1c(F)cccc1F [Example I-7, 2,6-Difluoro-N-[2-methyl-5-(4-methyl-6-morpholin-4-yl-pyrimidin-5-ylethynyl)-pyridin-3-yl]-benzenesulfonamide] | 0.8 nM | 108 nM | 146 nM | 223 nM | 38 nM | 82 nM |
| COCCS(=O)(=O)Nc1cc(C#Cc2c(C)ncnc2N2CCOCC2)cnc1C [Example I-12, 2-Methoxy-ethanesulfonic acid [2-methyl-5-(4-methyl-6-morpholin-4-yl-pyrimidin-5-ylethynyl)-pyridin-3-yl]-amide] | 4 nM | 486 nM | 839 nM | 1290 nM | 464 nM | 684 nM |
| Cc1ncc(C#Cc2c(C)ncnc2N2CCOCC2)cc1NS(=O)(=O)c1ccccc1F [Example I-2, 2-Fluoro-N-[2-methyl-5-(4-methyl-6-morpholin-4-yl-pyrimidin-5-ylethynyl)-pyridin-3-yl]-benzenesulfonamide] | 0.65 nM | 234 nM | 168 nM | 342 nM | 43 nM | 148 nM |
| Cc1ccccc1S(=O)(=O)Nc1cc(C#Cc2c(C)ncnc2N2CCOCC2)cnc1C [Example I-11, 2-Methyl-N-[2-methyl-5-(4-methyl-6-morpholin-4-yl-pyrimidin-5-ylethynyl)-pyridin-3-yl]-benzenesulfonamide] | 1 nM | 56 nM | 298 nM | 466 nM | 190 nM | 271 nM |
| Cc1ncnc(N2CCOCC2)c1C#Cc1cncc(NS(=O)(=O)c2cnn(C)c2)c1 [Example I-23, 1-Methyl-1H-pyrazole-4-sulfonic acid [5-(4-methyl-6-morpholin-4-yl-pyrimidin-5-ylethynyl)-pyridin-3-yl]-amide] | 0.66 nM | 2180 nM | 1040 nM | 1750 nM | 214 nM | 3500 nM |
| Cc1ncc(C#Cc2c(C)ncnc2N2CCOCC2)cc1NS(=O)(=O)c1ccccc1 [Example I-40, N-[2-Methyl-5-(4-methyl-6-morpholin-4-yl-pyrimidin-5-ylethynyl)-pyridin-3-yl]-benzenesulfonamide] | 0.28 nM | 120 nM | 145 nM | 386 nM | 49 nM | 147 nM |
